In patent publication US20260015325A1, “ALKOXY HETEROARYL- CARBOXAMIDE OR THIOAMIDE COMPOUNDS” (SYNGENTA CROP PROTECTION AG, priority 2022, published 2026):

Tests used:
Type in all cases: in vivo
[1] = system: Myzus persicae (Green Peach Aphid); assay: Myzus persicae (Green Peach Aphid): feeding/contact activity, eggplant leaf discs; conditions: foliar, 144 h, application rate of 200 ppm, mixed ages on sprayed eggplant leaf discs, 6 days after infestation, read-out: growth inhibition
Procedure: Example B12: Myzus persicae (Green Peach Aphid) Feeding/Contact Activity Eggplant leaf discs were placed onto agar in a 24-well microtiter plate and sprayed with aqueous test solutions prepared from 10′000 ppm DMSO stock solutions. After drying, the leaf discs were infested with an aphid population of mixed ages. The samples were assessed for mortality 6 days after infestation.

[2] = system: Tetranychus urticae (Two-Spotted Spider Mite); assay: whole plant or invertebrate; conditions: foliar, 192 h, application rate of 200 ppm, mixed population (mobile stages) on sprayed bean leaf discs, 8 days after infestation, read-out: mortality
Procedure: Example B11: Tetranychus urticae (Two-Spotted Spider Mite): Feeding/Contact Activity
Bean leaf discs on agar in 24-well microtiter plates were sprayed with aqueous test solutions prepared from 10′000 ppm DMSO stock solutions. After drying the leaf discs were infested with a mite population of mixed ages. The samples were assessed for mortality on mixed population (mobile stages) 8 days after infestation.

[3] = system: Euschistus heros (Neotropical Brown Stink Bug); assay: Euschistus heros (Neotropical Brown Stink Bug), soybean leaves; conditions: 120 h, application rate of 200 ppm, N2 nymphs on sprayed soybean leaves, 5 days after infestation, read-out: effect in at least one of the two categories (mortality or growth inhibition)
Procedure: Example B4: Euschistus heros (Neotropical Brown Stink Bug)
Soybean leaves on agar in 24-well microtiter plates were sprayed with aqueous test solutions prepared from 10′000 ppm DMSO stock solutions. After drying the leaves were infested with N2 nymphs. The samples were assessed for mortality and growth inhibition in comparison to untreated samples 5 days after infestation.

[4] = system: Myzus persicae (Green Peach Aphid); assay: Myzus persicae (Green Peach Aphid): systemic activity, pea seedlings; conditions: 144 h, test rate of 24 ppm, systemic, roots of infested pea seedlings in test solution, 6 days, read-out: mortality
Procedure: Example B7: Myzus persicae (Green Peach Aphid). Systemic Activity
Roots of pea seedlings infested with an aphid population of mixed ages were placed directly into aqueous test solutions prepared from 10′000 DMSO stock solutions. The samples were assessed for mortality 6 days after placing seedlings into test solutions.

[5] = system: Bemisia tabaci (Cotton White Fly); assay: Bemisia tabaci (Cotton White Fly): feeding/contact activity, cotton leaf discs; conditions: foliar, 144 h, application rate of 200 ppm, adult white flies on sprayed cotton leaf discs, 6 days after incubation, read-out: mortality
Procedure: Example B1: Bemisia tabaci (Cotton White Fly): Feeding/Contact Activity
Cotton leaf discs were placed on agar in 24-well microtiter plates and sprayed with aqueous test solutions prepared from 10′000 ppm DMSO stock solutions. After drying the leaf discs were infested with adult white flies. The samples were checked for mortality 6 days after incubation.

[6] = system: Myzus persicae (Green Peach Aphid); assay: Myzus persicae (Green Peach Aphid): feeding/contact activity, sunflower leaf discs; conditions: foliar, 144 h, application rate of 200 ppm, mixed ages on sprayed sunflower leaf discs, 6 days after infestation, read-out: mortality
Procedure: Example B6: Myzus persicae (Green Peach Aphid): Feeding/Contact Activity
Sunflower leaf discs were placed onto agar in a 24-well microtiter plate and sprayed with aqueous test solutions prepared from 10′000 ppm DMSO stock solutions. After drying, the leaf discs were infested with an aphid population of mixed ages. The samples were assessed for mortality 6 days after infestation.

[7] = system: Plutella xylostella (Diamond Back Moth); assay: Plutella xylostella (Diamond Back Moth), artificial diet; conditions: 192 h, application rate of 200 ppm, eggs on treated artificial diet, 8 days after infestation, read-out: effect in at least one of the two categories (mortality or growth inhibition)
Procedure: Example B9: Plutella xylostella (Diamond Back Moth)
24-well microtiter plates with artificial diet were treated with aqueous test solutions prepared from 10′000 ppm DMSO stock solutions by pipetting. After drying, Plutella eggs were pipetted through a plastic stencil onto a gel blotting paper and the plate was closed with it. The samples were assessed for mortality and growth inhibition in comparison to untreated samples 8 days after infestation.

[8] = system: Frankliniella occidentalis (Western Flower Thrips); assay: Frankliniella occidentalis (Western Flower Thrips): feeding/contact activity, sunflower leaf discs; conditions: foliar, 168 h, application rate of 200 ppm, mixed ages on sprayed sunflower leaf discs, 7 days after infestation
Procedure: Example B5: Frankliniella occidentalis (Western Flower Thrips): Feeding/Contact Activity
Sunflower leaf discs were placed on agar in 24-well microtiter plates and sprayed with aqueous test solutions prepared from […] stock solutions. After drying the leaf discs were infested with a Frankliniella population of mixed ages. The samples were assessed for mortality 7 days after infestation.

[9] = system: Diabrotica balteata (Corn Root Worm); assay: whole plant or invertebrate; conditions: 96 h, application rate of 200 ppm, L2 larvae on sprayed maize sprouts, 4 days after infestation, read-out: effect in at least one of the two categories (mortality or growth inhibition)
Procedure: Example B3: Diabrotica balteata (Corn Root Worm)
Maize sprouts placed onto an agar layer in 24-well microtiter plates were treated with aqueous test solutions prepared from 10′000 ppm DMSO stock solutions by spraying. After drying, the plates were infested with L2 larvae (6 to 10 per well). The samples were assessed for mortality and growth inhibition in comparison to untreated samples 4 days after infestation.

[10] = system: Myzus persicae (Green Peach Aphid); assay: Myzus persicae (Green Peach Aphid): intrinsic activity, sucrose solution; conditions: 120 h, test rate of 12 ppm, intrinsic, mixed with sucrose solution under Parafilm, 5 days after infestation, read-out: mortality
In short: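 Compounds from 10′000 ppm DMSO stocks mixed with sucrose solution in wells sealed with Parafilm; aphid-infested pea seedlings placed on the Parafilm and the assembly inverted so aphids feed through the membrane. Mortality assessed 5 days after infestation.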

[11] = system: Chilo suppressalis (Striped Rice Stemborer); assay: Chilo suppressalis (Striped Rice Stemborer), artificial diet; conditions: 144 h, application rate of 200 ppm, L2 larvae on treated artificial diet, 6 days after infestation, read-out: control (at least one of mortality, anti-feedant effect, growth inhibition)
Procedure: Example B2: Chilo suppressalis (Striped Rice Stemborer)
24-well microtiter plates with artificial diet were treated with aqueous test solutions prepared from 10′000 ppm DMSO stock solutions by pipetting. After drying, the plates were infested with L2 larvae (6-8 per well). The samples were assessed for mortality, anti-feeding effect, and growth inhibition in comparison to untreated samples 6 days after infestation. Control of Chilo suppressalis by a test sample is given when at least one of the categories mortality, anti-feedant effect, and growth inhibition is higher than the untreated sample.

Spodoptera littoralis = Spodoptera littoralis (Egyptian Cotton Leaf Worm), cotton leaf discs; conditions: foliar, 72 h, application rate of 200 ppm, L1 larvae on sprayed cotton leaf discs, 3 days after infestation, read-out: control (at least one of mortality, anti-feedant effect, growth inhibition)
Procedure: Example B10: Spodoptera littoralis (Eaytian Cotton Leaf Worm)
Cotton leaf discs were placed onto agar in 24-well microtiter plates and sprayed with aqueous test solutions prepared from 10′000 ppm DMSO stock solutions. After drying the leaf discs were infested with five L1 larvae. The samples were assessed for mortality, anti-feeding effect, and growth inhibition in comparison to untreated samples 3 days after infestation. Control of Spodoptera littoralis by a test sample is given when at least one of the categories mortality, anti-feedant effect, and growth inhibition is higher than the untreated sample.

C[C@@H](COc1cc(C(=O)NC2(C#N)CC2)c(Cl)nn1)NS(=O)(=O)C(F)(F)F [Compound P89, 3-chloro-N-(1-cyanocyclopropyl)-6-[(2S)-2-(trifluoromethylsulfonylamino)propoxy]pyridazine-4-carboxamide]
≥ 80%: inhibition at 200 ppm [1]

C[C@@H](COc1cnc(Cl)c(C(=O)NC2CC2)c1)NS(=O)(=O)C(F)(F)F [Compound P-1, 2-chloro-N-cyclopropyl-5-[(2S)-2-(trifluoromethylsulfonylamino)propoxy]pyridine-3-carboxamide]
≥ 80%: mortality at 200 ppm [2] | percent effect (mortality or growth inhibition) at 200 ppm [3] | mortality at 24 ppm [4] | mortality at 200 ppm [5] | mortality at 200 ppm [6] | percent effect (mortality or growth inhibition) at 200 ppm [7] | mortality at 200 ppm [8] | percent effect (mortality or growth inhibition) at 200 ppm [9] | mortality at 12 ppm [10]

C[C@@H](COc1cnc(Cl)c(C(=O)NC2(C#N)CC2)c1)NS(=O)(=O)C(F)(F)F [Compound P-2, 2-chloro-N-(1-cyanocyclopropyl)-5-[(2S)-2-(trifluoromethylsulfonylamino)propoxy]pyridine-3-carboxamide]
≥ 80%: percent effect (mortality or growth inhibition) at 200 ppm [3] | mortality at 24 ppm [4] | percent control (mortality, anti-feedant effect or growth inhibition) at 200 ppm [11] | mortality at 200 ppm [5] | mortality at 200 ppm [6] | percent control (mortality, anti-feedant effect or growth inhibition) at 200 ppm (Spodoptera littoralis) | mortality at 200 ppm [8] | percent effect (mortality or growth inhibition) at 200 ppm [9] | mortality at 12 ppm [10]

C[C@@H](COc1cnc(Cl)c(C(=O)NC2(C#N)CC2)c1)N(C)S(=O)(=O)C(F)(F)F [Compound P-7, 2-chloro-N-(1-cyanocyclopropyl)-5-[(2S)-2-[methyl(trifluoromethylsulfonyl)amino]propoxy]pyridine-3-carboxamide]
≥ 80%: mortality at 24 ppm [4] | mortality at 200 ppm [5] | mortality at 200 ppm [8] | percent effect (mortality or growth inhibition) at 200 ppm [9] | mortality at 12 ppm [10]

C[C@@H](COc1cnc(Cl)c(C(=O)Nc2ccc(C#N)cc2F)c1)NS(=O)(=O)C(F)(F)F [Compound P-22, 2-chloro-N-(4-cyano-2-fluoro-phenyl)-5-[(2S)-2-(trifluoromethylsulfonylamino)propoxy]pyridine-3-carboxamide]
≥ 80%: mortality at 200 ppm [2] | percent effect (mortality or growth inhibition) at 200 ppm [9]

Cc1cc(F)ccc1NC(=O)c1cc(OC[C@H](C)NS(=O)(=O)C(F)(F)F)cnc1Cl [Compound P-60, 2-chloro-N-(4-fluoro-2-methyl-phenyl)-5-[(2S)-2-(trifluoromethylsulfonylamino)propoxy]pyridine-3-carboxamide]
≥ 80%: mortality at 200 ppm [2] | percent effect (mortality or growth inhibition) at 200 ppm [7] | percent control (mortality, anti-feedant effect or growth inhibition) at 200 ppm (Spodoptera littoralis) | mortality at 12 ppm [10]

COCN([C@@H](C)COc1cnc(Cl)c(C(=O)NCC(F)(F)F)c1)S(=O)(=O)C(F)(F)F [Compound P-63, 2-chloro-5-[(2S)-2-[methoxymethyl(trifluoromethylsulfonyl)amino]propoxy]-N-(2,2,2-trifluoroethyl)pyridine-3-carboxamide]
≥ 80%: mortality at 200 ppm [2] | percent effect (mortality or growth inhibition) at 200 ppm [3] | percent control (mortality, anti-feedant effect or growth inhibition) at 200 ppm [11] | mortality at 200 ppm [5] | mortality at 12 ppm [10]

COCN([C@@H](C)COc1cnc(Cl)c(C(=O)NC2CC2)c1)S(=O)(=O)C(F)(F)F [Compound P-64, 2-chloro-N-cyclopropyl-5-[(2S)-2-[methoxymethyl(trifluoromethylsulfonyl)amino]propoxy]pyridine-3-carboxamide]
≥ 80%: mortality at 200 ppm [2] | percent effect (mortality or growth inhibition) at 200 ppm [3] | mortality at 24 ppm [4] | mortality at 200 ppm [5] | mortality at 200 ppm [6] | mortality at 200 ppm [8] | percent effect (mortality or growth inhibition) at 200 ppm [9] | mortality at 12 ppm [10]

CCN1OC[C@@H](NC(=O)c2cc(OC[C@H](C)NS(=O)(=O)C(F)(F)F)cnc2Cl)C1=O [Compound P-65, 2-chloro-N-[(4R)-2-ethyl-3-oxo-isoxazolidin-4-yl]-5-[(2S)-2-(trifluoromethylsulfonylamino)propoxy]pyridine-3-carboxamide]
≥ 80%: mortality at 200 ppm [2] | percent control (mortality, anti-feedant effect or growth inhibition) at 200 ppm (Spodoptera littoralis)
